Target: T1, human cytoplasmic dynein 2 (GFP-dynein 2, amino acids 1091–4307) (Homo sapiens, UniProt Q8NCM8)
T1 construct: (AA 1091–4307, uniprot: Q8NCM8); protein A tag (followed by TEV-cleavable linker) (N, cleaved yes); made in house; host or cells: Sf9 insect cells (baculovirus)
Test: Microtubule gliding (motility) assay with GFP-dynein 2
Type: biochemical
Details: for Velocity of dynein-2-driven microtubule gliding: 20 µM compound, solvent control 128 ± 14 nm/s, mean ± S.D.; for Velocity of dynein-2-driven microtubule gliding / IC50: 1 mM MgATP, 0.05 mg/mL casein, 2% DMSO; for IC50: read-out: IC50, inhibition of GFP-dynein-2-driven motility
Description: We purified an N-terminally GFP-tagged motor-domain construct of dynein 2 using an insect cell expression system ([Schmidt et al., 2015]). The GFP tag in this construct (GFP-dynein 2, amino acids 1091–4307) allowed the motor protein to be immobilized on passivated glass coverslips used in microtubule gliding assays. GFP-dynein 2 was obtained as a mono-disperse peak by gel filtration (Figure 2D and E). In the presence of ATP (1 mM), this protein moved microtubules with a velocity of 128 ± 14 nm/s (mean ± SD, Figure 2G and I).
Reaction setup: A coverslip-based motility assay was adapted from similar assays reported previously ([Firestone et al., 2012]; [Schmidt et al., 2015]). A flow chamber assembled on a pre-cleaned microscope coverslide (3–5 µL chamber volume) was hydrated with buffer A (25 mM PIPES, 30 mM KCl, 5 mM MgCl2, 1 mM EGTA, 0.01% Triton X-100, 1 mM DTT, 20 µM taxol, pH 7.0 with KOH). Anti-GFP antibody (0.4 mg/mL, affinity purified rabbit antibody) was flowed into the chamber and allowed to adhere non-specifically to the glass for 20 s. The surface was blocked using 0.5 mg/mL α-casein in buffer A. Excess protein was then washed away with buffer A. GFP-dynein motor domain was diluted in buffer A supplemented with 1 mM DTT and 0.1 mM ATP (2 mM DTT final; GFP-dynein 2 diluted to: 180 nM; GFP-dynein 1 diluted to: 60 nM), flowed into the chamber and allowed to bind for 20 s. Excess protein was washed away with buffer A. Reaction mix (25 mM PIPES, 90 mM KCl, 6 mM MgCl2, 1 mM EGTA, 0.01% Triton X-100, 3 mM DTT, 20 µM taxol, 1 mM ATP, 1x oxygen scavenging system components [4.5 mg/mL glucose, 35 µg/mL catalase, 200 µg/mL glucose oxidase], 2% final DMSO [v/v] with compounds at appropriate concentrations, 0.05 mg/mL α-casein, microtubules [rhodamine labeled, purified from bovine brain, GMP-CPP and Taxol-stabilized], pH 7.0 with KOH) was flowed into the chamber using ~4 chamber volumes. For experiments shown in Figure 4—figure supplement 1, α-casein concentration in reaction mix was 0.5 mg/mL and all other parameters were held constant.
For reversibility experiments, motility in the presence of 5 µM 8 was observed as above, and upon completion of imaging, the chamber, fresh buffer A supplemented with 1 mM ATP was flowed into the chamber and incubated for 1 min; this wash and incubation cycle was repeated twice. Reaction mix containing DMSO (no compound) was flowed into the chamber using ~4 chamber volumes. The chamber was sealed with valap and returned to the microscope.
Microscopy conditions: Following addition of reaction mix, microtubules were allowed to bind for 5 min before imaging. For reversibility experiments, microtubules were allowed to bind for 10 min before imaging. Videos were taken on a Zeiss Axiovert 200M wide-field microscope equipped with a Zeiss 100x/1.45 NA α-Plan-Fluar objective. Data were captured with an EM-CCD camera (iXon DU-897, Andor Technology) with a 0.2 s exposure time and frame rate of 0.25–0.5/second. Four 10–20 s videos were captured per experimental condition. Velocities were measured using the kymograph tool in FIJI ([Schindelin et al., 2012]). Data analysis is discussed below under ‘General data analysis procedures.’
Microtubule velocity measurements: the tracks of microtubules were traced and converted to kymographs (x axis-displacement, y axis-time) using the kymograph function of FIJI (RRID: SCR_002285). The angle formed between an edge of a microtubule and the horizontal was measured. This angle, θ, was converted into velocity using the following relationship: velocity = 1/|tangent(θ)| * (unit pixel distance)/(time interval between frames).
The calibrated pixel distance was 0.152 µm and the time interval between frames was either 2 or 4 s. The velocities of at least seven microtubules were measured per field of view, if sufficient tracks could be found. In cases where fewer than seven microtubules were found in a field of view, velocities of all microtubules on the coverslip were measured. […]

T1 sequence (Q8NCM8 1091-4307): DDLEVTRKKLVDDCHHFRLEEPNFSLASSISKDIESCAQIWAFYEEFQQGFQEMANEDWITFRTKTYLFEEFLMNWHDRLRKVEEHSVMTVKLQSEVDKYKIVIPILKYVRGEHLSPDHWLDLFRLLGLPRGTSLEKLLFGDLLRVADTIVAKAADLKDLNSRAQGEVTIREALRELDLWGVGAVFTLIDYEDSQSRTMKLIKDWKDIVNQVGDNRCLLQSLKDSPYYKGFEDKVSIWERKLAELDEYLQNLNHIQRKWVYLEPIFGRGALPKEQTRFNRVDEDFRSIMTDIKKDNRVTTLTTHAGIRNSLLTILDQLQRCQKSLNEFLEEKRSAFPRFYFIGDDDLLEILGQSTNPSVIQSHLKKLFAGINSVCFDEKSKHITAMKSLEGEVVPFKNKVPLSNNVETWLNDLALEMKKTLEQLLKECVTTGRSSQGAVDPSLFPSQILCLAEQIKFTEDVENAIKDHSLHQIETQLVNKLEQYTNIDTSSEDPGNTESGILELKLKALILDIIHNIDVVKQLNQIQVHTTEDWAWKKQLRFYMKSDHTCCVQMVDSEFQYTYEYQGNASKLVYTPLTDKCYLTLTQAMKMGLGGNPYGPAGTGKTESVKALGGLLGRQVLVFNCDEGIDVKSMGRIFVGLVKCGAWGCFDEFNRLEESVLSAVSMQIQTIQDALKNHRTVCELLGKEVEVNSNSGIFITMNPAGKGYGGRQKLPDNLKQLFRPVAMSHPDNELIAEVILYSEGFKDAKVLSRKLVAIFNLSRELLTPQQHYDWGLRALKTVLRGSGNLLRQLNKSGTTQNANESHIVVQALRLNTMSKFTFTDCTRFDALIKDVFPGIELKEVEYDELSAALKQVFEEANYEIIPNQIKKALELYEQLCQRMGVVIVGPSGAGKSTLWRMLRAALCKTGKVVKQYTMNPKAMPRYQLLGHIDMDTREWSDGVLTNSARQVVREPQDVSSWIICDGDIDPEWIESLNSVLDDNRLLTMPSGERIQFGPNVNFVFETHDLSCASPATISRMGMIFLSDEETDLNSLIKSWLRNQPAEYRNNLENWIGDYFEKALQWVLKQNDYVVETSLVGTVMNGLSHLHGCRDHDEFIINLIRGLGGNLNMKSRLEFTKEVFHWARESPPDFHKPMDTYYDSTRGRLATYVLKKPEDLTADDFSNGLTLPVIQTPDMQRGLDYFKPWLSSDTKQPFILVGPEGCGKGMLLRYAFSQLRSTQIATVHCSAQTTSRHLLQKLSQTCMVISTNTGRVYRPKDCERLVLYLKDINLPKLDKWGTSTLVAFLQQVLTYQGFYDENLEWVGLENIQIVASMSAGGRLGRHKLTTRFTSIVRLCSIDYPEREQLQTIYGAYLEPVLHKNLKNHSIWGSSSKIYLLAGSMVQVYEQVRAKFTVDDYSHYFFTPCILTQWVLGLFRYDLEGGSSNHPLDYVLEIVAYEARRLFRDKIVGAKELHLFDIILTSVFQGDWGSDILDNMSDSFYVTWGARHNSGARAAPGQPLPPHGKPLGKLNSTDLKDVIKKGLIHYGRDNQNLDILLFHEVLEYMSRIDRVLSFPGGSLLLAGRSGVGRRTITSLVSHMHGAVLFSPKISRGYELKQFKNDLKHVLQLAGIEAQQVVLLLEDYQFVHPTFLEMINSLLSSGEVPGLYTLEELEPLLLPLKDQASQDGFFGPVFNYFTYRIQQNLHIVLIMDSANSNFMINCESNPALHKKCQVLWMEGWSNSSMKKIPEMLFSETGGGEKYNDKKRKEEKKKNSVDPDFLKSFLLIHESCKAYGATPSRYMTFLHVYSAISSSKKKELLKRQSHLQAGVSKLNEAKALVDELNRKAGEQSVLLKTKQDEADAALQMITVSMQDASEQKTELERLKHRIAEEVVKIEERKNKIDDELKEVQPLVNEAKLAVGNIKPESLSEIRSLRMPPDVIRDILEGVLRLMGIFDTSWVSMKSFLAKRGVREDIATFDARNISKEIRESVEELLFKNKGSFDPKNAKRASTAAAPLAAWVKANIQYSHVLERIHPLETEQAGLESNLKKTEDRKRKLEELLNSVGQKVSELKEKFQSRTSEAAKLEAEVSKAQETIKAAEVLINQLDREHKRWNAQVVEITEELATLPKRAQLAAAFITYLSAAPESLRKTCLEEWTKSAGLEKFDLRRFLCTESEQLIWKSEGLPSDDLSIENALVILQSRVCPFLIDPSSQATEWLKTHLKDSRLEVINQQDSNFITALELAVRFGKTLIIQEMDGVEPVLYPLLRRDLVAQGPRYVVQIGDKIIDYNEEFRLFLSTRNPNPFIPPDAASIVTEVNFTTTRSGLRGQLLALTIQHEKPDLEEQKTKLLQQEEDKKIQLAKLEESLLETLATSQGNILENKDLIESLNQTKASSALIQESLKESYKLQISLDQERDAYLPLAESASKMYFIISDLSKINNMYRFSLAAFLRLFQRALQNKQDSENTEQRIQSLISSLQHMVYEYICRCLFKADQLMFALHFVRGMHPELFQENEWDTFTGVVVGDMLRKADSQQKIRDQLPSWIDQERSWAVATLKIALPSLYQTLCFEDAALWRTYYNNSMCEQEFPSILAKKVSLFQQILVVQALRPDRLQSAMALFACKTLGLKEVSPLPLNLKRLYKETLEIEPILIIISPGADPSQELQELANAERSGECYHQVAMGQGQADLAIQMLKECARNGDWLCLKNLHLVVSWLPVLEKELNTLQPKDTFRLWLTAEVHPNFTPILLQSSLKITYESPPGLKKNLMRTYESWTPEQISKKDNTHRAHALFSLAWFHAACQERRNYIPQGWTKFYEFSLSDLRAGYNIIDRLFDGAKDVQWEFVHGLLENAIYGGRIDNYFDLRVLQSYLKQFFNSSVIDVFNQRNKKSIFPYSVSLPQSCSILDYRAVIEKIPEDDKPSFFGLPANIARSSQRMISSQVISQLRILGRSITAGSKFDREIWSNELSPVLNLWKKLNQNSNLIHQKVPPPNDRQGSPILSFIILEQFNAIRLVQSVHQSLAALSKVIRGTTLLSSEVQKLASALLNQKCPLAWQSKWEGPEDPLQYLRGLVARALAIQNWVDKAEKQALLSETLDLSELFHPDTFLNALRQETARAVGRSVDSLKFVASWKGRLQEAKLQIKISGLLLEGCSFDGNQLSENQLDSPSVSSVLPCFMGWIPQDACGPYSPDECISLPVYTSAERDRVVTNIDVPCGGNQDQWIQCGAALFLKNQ

| Compound | Velocity of dynein-2-driven microtubule gliding | IC50 [µM] | Improvement in potency of dynein 2 inhibition by cyclization (compound 6 versus compound 9) (microtubule gliding assay) |
| --- | --- | --- | --- |
| O=c1[nH]c2cc(-c3ccc(Cl)cc3Cl)nn2c2ccccc12 [Compound 3, 2-(2,4-dichlorophenyl)-4H-pyrazolo[1,5-a]quinazolin-5-one] | comparable to that observed in the presence of ciliobrevin D |  |  |
| N#Cc1c(-c2ccc(Cl)cc2Cl)nn2c1[nH]c(=O)c1ccccc12 [Compound 4, 2-(2,4-dichlorophenyl)-5-oxo-4H-pyrazolo[1,5-a]quinazoline-3-carbonitrile] | comparable to that observed in the presence of ciliobrevin D |  |  |
| N#Cc1c(C2(c3ccc(Cl)cc3)CC2)nn2c1[nH]c(=O)c1ccccc12 [Compound 5, 2-[1-(4-chlorophenyl)cyclopropyl]-5-oxo-4H-pyrazolo[1,5-a]quinazoline-3-carbonitrile] | 58 ± 14 nm/s |  |  |

Further lines, results first:

| Velocity of dynein-2-driven microtubule gliding | IC50 [µM] | Improvement in potency of dynein 2 inhibition by cyclization (compound 6 versus compound 9) (microtubule gliding assay) | Compound |
| --- | --- | --- | --- |
| 126 ± 17 nm/s |  |  | N#Cc1c(-c2ccc(Cl)cc2Cl)cn2c1[nH]c(=O)c1ccccc12 [Compound 2, 2-(2,4-dichlorophenyl)-5-oxo-4H-pyrrolo[1,2-a]quinazoline-3-carbonitrile] |
| 6 ± 2 nm/s | 2.9 ± 0.6 | ~ 6 fold | N#Cc1c(C2(c3ccc(Cl)cc3)CC2)nn2c1[nH]c(=O)c1cc(C(F)(F)F)ccc12 [Compound 6, 2-(1-(4-chlorophenyl)cyclopropyl)-5-oxo-7-(trifluoromethyl)-4,5-dihydropyrazolo[1,5-a]quinazoline-3-carbonitrile] |
| 128 ± 21 nm/s |  |  | COc1ccc2c(c1)c(=O)[nH]c1c(C#N)c(C3(c4ccc(Cl)cc4)CC3)nn12 [Compound 7, 2-[1-(4-chlorophenyl)cyclopropyl]-7-methoxy-5-oxo-4H-pyrazolo[1,5-a]quinazoline-3-carbonitrile] |
|  | 17.7 |  | N#C/C(C(=O)c1ccc(Cl)cc1Cl)=C1\NC(=O)c2cc(C(F)(F)F)ccc2N1 [Compound 9, (E)-3-(2,4-dichlorophenyl)-3-oxo-2-(4-oxo-6-(trifluoromethyl)-3,4-dihydroquinazolin-2(1H)-ylidene)propanenitrile] |

Source: paper PMC5478271, “Chemical structure-guided design of dynapyrazoles, cell-permeable dynein inhibitors with a unique mode of action” (eLife, 2017)
